Active and inactive are the calls of the source.
How the values were obtained:
[1] = biological target: Neuropeptides B/W receptor type 1 (Homo sapiens, UniProt P48145); assay: Fluorescence-based dose response cell-based high throughput screening assay to identify antagonists of the G-protein coupled receptor 7 (GPR7). [Related pubchem assays: 1952 (Screening assay (GPR7 antagonists).), 1880 (Summary AID.)]; format: functional
[2] = biological target: T1, Neuropeptide Y receptor type 2 (Homo sapiens, UniProt P49146); assay: NPY-Y2 antagonist potency, selectivity check, dose response, counter-screen for NPY-Y1 antagonist project, cell-based (AID 1278); format: functional
T1 sequence (P49146 whole entry): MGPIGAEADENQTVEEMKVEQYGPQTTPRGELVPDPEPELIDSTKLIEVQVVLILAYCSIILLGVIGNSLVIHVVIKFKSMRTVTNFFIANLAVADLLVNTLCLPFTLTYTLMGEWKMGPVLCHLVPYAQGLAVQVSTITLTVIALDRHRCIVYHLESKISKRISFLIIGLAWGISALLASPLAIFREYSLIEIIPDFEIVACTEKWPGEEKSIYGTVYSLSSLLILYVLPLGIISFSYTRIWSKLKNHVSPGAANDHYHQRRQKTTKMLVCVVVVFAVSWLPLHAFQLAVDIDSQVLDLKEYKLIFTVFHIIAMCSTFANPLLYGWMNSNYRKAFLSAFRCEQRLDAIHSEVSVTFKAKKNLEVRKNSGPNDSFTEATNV

[3] = biological target: Melanin-concentrating hormone receptor 1 (Homo sapiens, UniProt Q99705); assay: Fluorescence-based counterscreen for antagonists of the G-protein coupled receptor 7 (GPR7): cell-based high throughput dose response assay to identify antagonists of the melanin-concentrating hormone receptor 1 (MCHR1).; format: functional
[4] = biological target: T2, Neuropeptide Y receptor type 1 (Homo sapiens, UniProt P25929); assay: NPY-Y1 receptor antagonist potency, dose response, cell-based (AID 1277); format: functional
T2 sequence (P25929 whole entry): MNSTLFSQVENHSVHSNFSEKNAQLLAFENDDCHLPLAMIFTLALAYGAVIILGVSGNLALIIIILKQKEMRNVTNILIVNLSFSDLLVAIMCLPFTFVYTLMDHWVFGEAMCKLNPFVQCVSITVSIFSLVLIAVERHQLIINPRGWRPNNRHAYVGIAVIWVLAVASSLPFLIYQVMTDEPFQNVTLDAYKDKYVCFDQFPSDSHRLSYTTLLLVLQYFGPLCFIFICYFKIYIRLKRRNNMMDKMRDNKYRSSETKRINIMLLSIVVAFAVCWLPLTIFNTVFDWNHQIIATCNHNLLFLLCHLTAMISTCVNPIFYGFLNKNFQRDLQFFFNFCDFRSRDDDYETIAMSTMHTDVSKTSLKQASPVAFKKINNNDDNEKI

INS1 = assay: beta cell apoptosis inhibitors, cytokine rescue, dose response, luminescence, retest (AID 449756); format: functional, cell-based; details: Rattus norvegicus, INS1;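 further: cell death triggered by IL-1 beta plus TNF-alpha plus IFN-gamma mixture; protective hits raise ATP signal compared with cytokine alone wells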
Cytochrome P450 2C9 = Cytochrome P450 2C9 (Homo sapiens, UniProt P11712); details: Potency
BJ [5] = assay: cytotoxicity toward BJ-TERT fibroblasts, dose response, cell-based, RAS-independent, luminescence (AID 1933); format: functional; details: Homo sapiens
[6] = biological target: T3, Eukaryotic translation initiation factor 2-alpha kinase 3 (Homo sapiens, UniProt Q9NZJ5); assay: Dose response cell-based high-throughput screening assay to measure PERK inhibition. [Related pubchem assays: 1416 ]; format: functional
T3 sequence (Q9NZJ5 whole entry): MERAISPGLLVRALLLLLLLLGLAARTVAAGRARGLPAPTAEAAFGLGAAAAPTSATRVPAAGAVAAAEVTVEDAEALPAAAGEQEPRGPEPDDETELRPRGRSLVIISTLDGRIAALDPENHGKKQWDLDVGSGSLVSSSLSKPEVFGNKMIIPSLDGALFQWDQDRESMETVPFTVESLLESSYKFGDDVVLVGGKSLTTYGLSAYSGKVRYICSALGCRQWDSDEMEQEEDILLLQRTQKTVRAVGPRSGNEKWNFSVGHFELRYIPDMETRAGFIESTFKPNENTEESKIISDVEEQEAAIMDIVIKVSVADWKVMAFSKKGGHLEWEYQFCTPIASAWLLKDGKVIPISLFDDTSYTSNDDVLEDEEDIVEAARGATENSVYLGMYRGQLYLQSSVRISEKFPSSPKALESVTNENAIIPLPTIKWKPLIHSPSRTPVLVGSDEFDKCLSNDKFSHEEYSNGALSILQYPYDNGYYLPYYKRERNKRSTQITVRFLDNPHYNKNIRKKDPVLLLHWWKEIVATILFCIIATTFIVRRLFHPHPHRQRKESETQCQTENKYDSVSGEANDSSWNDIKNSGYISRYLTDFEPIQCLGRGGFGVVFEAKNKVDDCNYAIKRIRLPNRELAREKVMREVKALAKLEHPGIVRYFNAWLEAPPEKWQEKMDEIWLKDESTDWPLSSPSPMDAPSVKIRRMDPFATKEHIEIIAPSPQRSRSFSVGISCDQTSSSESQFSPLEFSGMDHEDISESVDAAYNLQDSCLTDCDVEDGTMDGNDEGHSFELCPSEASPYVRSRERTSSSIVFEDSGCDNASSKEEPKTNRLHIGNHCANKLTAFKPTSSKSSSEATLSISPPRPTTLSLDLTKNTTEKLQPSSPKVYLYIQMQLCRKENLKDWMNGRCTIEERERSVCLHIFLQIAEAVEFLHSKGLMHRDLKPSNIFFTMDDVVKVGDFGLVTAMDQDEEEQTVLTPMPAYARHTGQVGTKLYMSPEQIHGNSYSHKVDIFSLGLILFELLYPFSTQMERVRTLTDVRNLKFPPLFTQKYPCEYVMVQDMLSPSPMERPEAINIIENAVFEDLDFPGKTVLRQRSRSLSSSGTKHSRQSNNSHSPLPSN

BJ [7] = assay: cells; format: functional, cell-based; details: Homo sapiens
[8] = biological target: T3, Eukaryotic translation initiation factor 2-alpha kinase 3; assay: Counterscreen assay for PERK inhibitors: Dose response cell-based high throughput screening assay to measure inhibition of PERK at 6 hours. [Related pubchem assays: 1522, 1416 ]; format: functional
BJ [9] = assay: cytotoxicity toward BJ-TERT-LT-ST fibroblasts, dose response, cell-based, RAS-independent, luminescence (AID 1935); format: functional; details: Homo sapiens;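 further: BJ fibroblasts immortalized with TERT plus LT and ST oncogenes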
[10] = cytotoxicity toward DRD oncogenic fibroblasts, dose response, cell-based, non-viral oncogenic, luminescence (AID 1934); format: functional; details: Homo sapiens
[11] = biological target: Cyclin-dependent kinase 5/CDK5 activator 1 (Homo sapiens, UniProt Q00535); assay: CDK5/p35 kinase inhibitors, dose response, biochemical, cherry-picked samples, set 2 (AID 504545)
Galanin receptor type 3 = biological target: T4, Galanin receptor type 3 (Homo sapiens, UniProt O60755); assay: Fluorescence-based cell-based primary high throughput dose response assay to identify antagonists of the Galanin Receptor 3 (GalR3).; format: functional
T4 sequence (O60755 whole entry): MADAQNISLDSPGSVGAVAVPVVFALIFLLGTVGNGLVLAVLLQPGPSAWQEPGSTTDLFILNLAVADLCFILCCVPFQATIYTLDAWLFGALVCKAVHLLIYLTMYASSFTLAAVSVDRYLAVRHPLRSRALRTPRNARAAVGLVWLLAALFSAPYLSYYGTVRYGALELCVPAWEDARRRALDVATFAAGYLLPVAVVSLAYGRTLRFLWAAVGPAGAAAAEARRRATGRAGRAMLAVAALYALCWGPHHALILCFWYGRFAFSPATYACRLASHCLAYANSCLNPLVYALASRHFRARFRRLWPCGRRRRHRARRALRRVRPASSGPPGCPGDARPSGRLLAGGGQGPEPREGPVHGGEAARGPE

cells = format: functional, cell-based; details: HEK-CNG

Neuropeptides B/W receptor type 1, sequence (P48145 whole entry): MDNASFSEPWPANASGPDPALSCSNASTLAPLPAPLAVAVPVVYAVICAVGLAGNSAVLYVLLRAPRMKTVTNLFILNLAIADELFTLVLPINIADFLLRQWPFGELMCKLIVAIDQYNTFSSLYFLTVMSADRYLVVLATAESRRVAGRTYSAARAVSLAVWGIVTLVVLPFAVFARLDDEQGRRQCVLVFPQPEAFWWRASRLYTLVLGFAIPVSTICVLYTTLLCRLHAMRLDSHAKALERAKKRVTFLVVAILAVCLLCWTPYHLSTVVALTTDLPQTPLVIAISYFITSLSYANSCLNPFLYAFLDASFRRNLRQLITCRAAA
Cytochrome P450 2C9, sequence (P11712 whole entry): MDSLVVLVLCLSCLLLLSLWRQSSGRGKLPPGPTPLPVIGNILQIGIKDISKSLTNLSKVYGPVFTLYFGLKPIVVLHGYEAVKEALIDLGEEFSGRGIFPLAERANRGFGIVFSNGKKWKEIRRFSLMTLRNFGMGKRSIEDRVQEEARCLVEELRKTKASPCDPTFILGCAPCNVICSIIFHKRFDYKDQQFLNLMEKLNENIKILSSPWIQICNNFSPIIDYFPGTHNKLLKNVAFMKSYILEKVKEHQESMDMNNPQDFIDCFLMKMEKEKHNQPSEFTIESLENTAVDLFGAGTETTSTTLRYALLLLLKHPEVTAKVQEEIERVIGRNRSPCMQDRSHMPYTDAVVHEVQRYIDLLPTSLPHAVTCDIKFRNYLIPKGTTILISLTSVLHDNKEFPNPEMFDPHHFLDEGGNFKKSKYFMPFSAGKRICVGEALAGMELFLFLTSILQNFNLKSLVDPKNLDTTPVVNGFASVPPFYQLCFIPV
Cyclin-dependent kinase 5/CDK5 activator 1, sequence (Q00535 whole entry): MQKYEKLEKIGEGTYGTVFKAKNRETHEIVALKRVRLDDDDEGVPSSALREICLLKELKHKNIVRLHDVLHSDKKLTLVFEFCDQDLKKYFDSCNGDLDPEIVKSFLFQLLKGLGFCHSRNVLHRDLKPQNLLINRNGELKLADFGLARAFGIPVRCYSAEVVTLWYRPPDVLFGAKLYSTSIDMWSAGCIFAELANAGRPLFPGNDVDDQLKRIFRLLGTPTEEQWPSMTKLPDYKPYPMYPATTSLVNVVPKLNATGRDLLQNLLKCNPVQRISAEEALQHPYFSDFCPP
Cyclin-dependent kinase 5/CDK5 activator 1, sequence (Q15078 whole entry, further chain): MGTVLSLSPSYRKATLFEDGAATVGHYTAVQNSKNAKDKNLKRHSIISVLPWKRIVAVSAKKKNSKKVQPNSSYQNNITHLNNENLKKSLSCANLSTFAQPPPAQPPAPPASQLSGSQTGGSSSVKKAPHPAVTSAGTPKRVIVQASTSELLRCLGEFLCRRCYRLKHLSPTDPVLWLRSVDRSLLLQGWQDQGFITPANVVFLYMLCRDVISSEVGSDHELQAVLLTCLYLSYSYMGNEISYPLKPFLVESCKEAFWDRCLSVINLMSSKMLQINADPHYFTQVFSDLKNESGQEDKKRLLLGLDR
Melanin-concentrating hormone receptor 1, sequence (Q99705 whole entry): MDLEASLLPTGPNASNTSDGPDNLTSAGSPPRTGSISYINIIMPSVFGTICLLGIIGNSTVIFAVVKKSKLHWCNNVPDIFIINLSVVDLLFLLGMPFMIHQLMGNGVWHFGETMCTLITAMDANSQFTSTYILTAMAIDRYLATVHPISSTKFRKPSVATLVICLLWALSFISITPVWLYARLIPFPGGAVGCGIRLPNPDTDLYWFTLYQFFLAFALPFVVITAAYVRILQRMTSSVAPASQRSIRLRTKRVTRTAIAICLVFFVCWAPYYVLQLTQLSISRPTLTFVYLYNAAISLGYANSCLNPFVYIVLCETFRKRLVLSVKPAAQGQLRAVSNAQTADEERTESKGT

Compound: Cc1ccc(C(=O)C[n+]2cc(-c3ccccc3)n3c2CCCCC3)cc1
- IC50 [1]: 31.2 µM (not active)
- IC50 [2]: 8.01 µM (active)
- IC50 [3]: > 14.6 µM (not active)
- IC50 [4]: 6.06 µM (active)
- AC50 (INS1): 4.71 µM (active)

Compound: CC(C)C[C@@H](CC(=O)N[C@@H](CCC(=O)O)CC(=O)O)NC(=O)[C@@H]1CCCC[C@H]1NC(=O)C[C@H](CCCN)NC(=O)C[C@H](CO)NC(=O)[C@@H]1CNCC[C@H]1N
- AC50 (Cytochrome P450 2C9): 31.6 µM (inconclusive)

Compound: NC(=O)c1cn(C2OC(CO)C(O)C2O)c2ncnc(N)c12 (stereo not given)
- EC50 (BJ [5]): 0.874 µM (active)
- EC50 [6]: > 55.7 µM (not active)
- EC50 (BJ [7]): 1.27 µM (inconclusive)
- EC50 [8]: > 55.7 µM (not active)
- EC50 (BJ [9]): 1.19 µM (inconclusive)
- EC50 [10]: 1.09 µM (active)
- AC50 [11]: 14.6 µM (active)
- IC50 (Galanin receptor type 3): 1.31 µM (active)
- EC50 (cells): > 29.9 µM (inactive)

Source: ChEMBL document CHEMBL1201862, “PubChem BioAssay data set” (2004)
